Experimental data: ChEMBL document CHEMBL3217748, “Chemical synthesis and biological study of 4-carboxymethyl-epiafzelechin acid, an osteoprotective compound from the rhizomes of Drynaria fortunei” (2012)
The source made the active and inactive calls. The rule behind the calls is not given here.

Tests used:
[1] = test system: UMR106; assay: Induction of rat UMR106 cell proliferation after 24 hrs by MTS assay in presence of estrogen receptor antagonist ICI 182,780; type: functional, cell-based
[2] = molecular target: Estrogen receptor beta (Homo sapiens) (UniProt Q92731); assay: Transactivation of human ER-beta transfected in rat UMR106 cells at 10^-14 to 10^-6 M after 24 hrs by dual luciferase reporter gene assay; type: cell-based
Chain of Estrogen receptor beta (Homo sapiens) (Q92731 whole entry): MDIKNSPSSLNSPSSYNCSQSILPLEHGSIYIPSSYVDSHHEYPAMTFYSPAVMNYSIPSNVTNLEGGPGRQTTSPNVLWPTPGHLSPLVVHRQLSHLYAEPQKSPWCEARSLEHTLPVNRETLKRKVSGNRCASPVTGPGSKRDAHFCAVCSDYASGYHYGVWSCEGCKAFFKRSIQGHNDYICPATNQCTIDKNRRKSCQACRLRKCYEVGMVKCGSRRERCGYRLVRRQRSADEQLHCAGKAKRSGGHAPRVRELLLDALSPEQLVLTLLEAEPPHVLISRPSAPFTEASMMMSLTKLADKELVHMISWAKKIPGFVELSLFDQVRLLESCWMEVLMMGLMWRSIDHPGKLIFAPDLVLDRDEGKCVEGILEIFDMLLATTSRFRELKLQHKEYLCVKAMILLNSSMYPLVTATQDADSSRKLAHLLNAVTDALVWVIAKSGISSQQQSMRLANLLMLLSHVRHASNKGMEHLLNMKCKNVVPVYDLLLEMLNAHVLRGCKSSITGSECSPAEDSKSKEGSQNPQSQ

[3] = test system: UMR106; assay: Induction of rat UMR106 cell differentiation after 24 hrs by ALP assay in presence of estrogen receptor antagonist ICI 182,780; type: functional, cell-based
[4] = test system: UMR106; assay: Induction of rat UMR106 cell proliferation after 24 hrs by MTS assay; type: functional, cell-based
[5] = Induction of rat UMR106 cell differentiation at 10^-10 M after 24 hrs by ALP assay relative to control; type: functional
[6] = test system: UMR106; assay: (§1) Induction of rat UMR106 cell differentiation at 10^-8 M after 24 hrs by ALP assay relative to control; type: functional
[7] = test system: UMR106; assay: Induction of rat UMR106 cell proliferation at 10^-8 M after 24 hrs by MTS assay in presence of estrogen receptor antagonist ICI 182,780; type: functional, cell-based
[8] = test system: UMR106; assay: Induction of rat UMR106 cell proliferation assessed as increase in cell number at 10^-8 M after 24 hrs by MTS assay; type: functional, cell-based
[9] = as §1; type: functional
[10] = Induction of rat UMR106 cell proliferation assessed as increase in cell number at 10^-10 to 10^-8 M after 24 hrs by MTS assay relative to control; type: functional
[11] = Induction of rat UMR106 cell differentiation at 10^-6 M after 24 hrs by ALP assay relative to control; type: functional

| Activity [2] | SMILES | Activity [1] | Activity [3] | Activity [4] | Activity [5] | Activity [6] | Activity [7] | Activity [8] | Activity [9] | fold change (FC) [10] | Activity [11] |
| --- | --- | --- | --- | --- | --- | --- | --- | --- | --- | --- | --- |
| inactive | O=C1C[C@H]2c3c(O)cc(O)cc3O[C@H](c3ccc(O)cc3)[C@H]2O1 | inactive | Active | Dose-dependent effect | 10% |  |  |  |  |  |  |
|  | C[C@]12CC[C@@H]3c4ccc(O)cc4CC[C@H]3[C@@H]1CC[C@@H]2O |  | Active | Dose-dependent effect |  | Active | inactive | Active |  |  |  |
| inactive | O=C(O)C[C@H]1c2c(O)cc(O)cc2O[C@H](c2ccc(O)cc2)[C@@H]1O | inactive | Active | Dose-dependent effect | 18% |  |  |  | 14% | 1.4 | 18% |
